Results: PubChem BioAssay AID2060488 (Molecular Pharmacology Branch, DTP, NCI, 2025)
pIC50: −log10 of the molar value.

Test system: 966289-007-R4-J1-PDC complex spheroid viability
Assay: Anticancer human tumor 966289-007-R4-J1-PDC patient-derived pancreatic adenocarcinoma cell line growth inhibition [GQUAD]
Conditions: for pIC50: curve of first compound; for viability, T/C: stronger effect = lower value
Method in brief: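 Tumor cells were grown as complex spheroids with HUVEC endothelial cells and mesenchymal stem cells as stroma. G-quadruplex stabilizers were combined with targeted agents over half-log dilutions from near the clinical Cmax, or from 10 microM.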

[1] = second compound 0.0316 µM, first compound 0.0316 µM
[2] = second compound 0.0316 µM, first compound 0.316 µM
[3] = second compound 0.1 µM, first compound 0.0316 µM
[4] = second compound 0.1 µM, first compound 0.316 µM
[5] = second compound 0.316 µM, first compound 0.0316 µM
[6] = second compound 0.316 µM, first compound 0.316 µM
[7] = second compound 1 µM, first compound 0.0316 µM
[8] = second compound 1 µM, first compound 0.316 µM
[9] = second compound 3.16 µM, first compound 0.0316 µM
[10] = second compound 3.16 µM, first compound 0.316 µM
[11] = second compound 10 µM, first compound 0.0316 µM
[12] = second compound 10 µM, first compound 0.316 µM
[13] = second compound 0.0316 µM, first compound 0.1 µM
[14] = second compound 0.0316 µM, first compound 1 µM
[15] = second compound 0.0316 µM, first compound 3.16 µM
[16] = second compound 0.0316 µM, first compound 10 µM
[17] = second compound 0.1 µM, first compound 0.1 µM
[18] = second compound 0.1 µM, first compound 1 µM
[19] = second compound 0.1 µM, first compound 3.16 µM
[20] = second compound 0.1 µM, first compound 10 µM
[21] = second compound 0.316 µM, first compound 0.1 µM
[22] = second compound 0.316 µM, first compound 1 µM
[23] = second compound 0.316 µM, first compound 3.16 µM
[24] = second compound 0.316 µM, first compound 10 µM
[25] = second compound 1 µM, first compound 0.1 µM
[26] = second compound 1 µM, first compound 1 µM
[27] = second compound 1 µM, first compound 3.16 µM
[28] = second compound 1 µM, first compound 10 µM
[29] = second compound 3.16 µM, first compound 0.1 µM
[30] = second compound 3.16 µM, first compound 1 µM
[31] = second compound 3.16 µM, first compound 3.16 µM
[32] = second compound 3.16 µM, first compound 10 µM
[33] = second compound 10 µM, first compound 0.1 µM
[34] = second compound 10 µM, first compound 1 µM
[35] = second compound 10 µM, first compound 3.16 µM
[36] = second compound 10 µM, first compound 10 µM
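Further: spheroids exposed to the agents for seven days before readout.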
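Wherever viability, T/C is given: percent viability relative to DMSO vehicle control wells taken as 100%.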

Cc1[nH]c2ccccc2c1CCNCc1ccc(/C=C/C(=O)NO)cc1 + Cc1cnc(CNC(=O)c2c(=O)c3ccc(N4CCCN(C)CC4)nc3n3c2sc2ccccc23)cn1
pIC50 (second compound 0.0316 µM): 7.33 | pIC50 (second compound 0.1 µM): > 9.00 | pIC50 (second compound 0.316 µM): > 9.00 | pIC50 (second compound 1 µM): > 9.00 | pIC50 (second compound 3.16 µM): > 9.00 | pIC50 (second compound 10 µM): > 9.00 | viability, T/C (second compound 0.0316 µM, first compound 0.000999 µM): 120% | viability, T/C (second compound 0.0316 µM, first compound 0.00316 µM): 109% | viability, T/C (second compound 0.0316 µM, first compound 0.00999 µM): 110% | viability, T/C [1]: 72% | viability, T/C (second compound 0.0316 µM, first compound 0.0999 µM): 7.63% | viability, T/C [2]: 2.65% | viability, T/C (second compound 0.1 µM, first compound 0.000999 µM): 36.1% | viability, T/C (second compound 0.1 µM, first compound 0.00316 µM): 41.1% | viability, T/C (second compound 0.1 µM, first compound 0.00999 µM): 39.4% | viability, T/C [3]: 20.3% | viability, T/C (second compound 0.1 µM, first compound 0.0999 µM): 5.43% | viability, T/C [4]: 2.01% | viability, T/C (second compound 0.316 µM, first compound 0.000999 µM): 10.3% | viability, T/C (second compound 0.316 µM, first compound 0.00316 µM): 10.7% | viability, T/C (second compound 0.316 µM, first compound 0.00999 µM): 9.3% | viability, T/C [5]: 5.04% | viability, T/C (second compound 0.316 µM, first compound 0.0999 µM): 2.95% | viability, T/C [6]: 1.25% | viability, T/C (second compound 1 µM, first compound 0.000999 µM): 7.03% | viability, T/C (second compound 1 µM, first compound 0.00316 µM): 5.38% | viability, T/C (second compound 1 µM, first compound 0.00999 µM): 5.15% | viability, T/C [7]: 3.16% | viability, T/C (second compound 1 µM, first compound 0.0999 µM): 1.45% | viability, T/C [8]: 0.33% | viability, T/C (second compound 3.16 µM, first compound 0.000999 µM): 3.98% | viability, T/C (second compound 3.16 µM, first compound 0.00316 µM): 4.39% | viability, T/C (second compound 3.16 µM, first compound 0.00999 µM): 3.78% | viability, T/C [9]: 0.2% | viability, T/C (second compound 3.16 µM, first compound 0.0999 µM): 0.08% | viability, T/C [10]: 0.8% | viability, T/C (second compound 10 µM, first compound 0.000999 µM): 0.11% | viability, T/C (second compound 10 µM, first compound 0.00316 µM): 0.57% | viability, T/C (second compound 10 µM, first compound 0.00999 µM): 0.17% | viability, T/C [11]: 0.39% | viability, T/C (second compound 10 µM, first compound 0.0999 µM): 0.16% | viability, T/C [12]: 0.17%

Nc1ccn(C2OC(CO)C(O)C2(F)F)c(=O)n1 (stereo unspecified) + Cc1cnc(CNC(=O)c2c(=O)c3ccc(N4CCCN(C)CC4)nc3n3c2sc2ccccc23)cn1
pIC50 (second compound 0.0316 µM): > 7.50 | pIC50 (second compound 0.1 µM): > 7.50 | pIC50 (second compound 0.316 µM): > 7.50 | pIC50 (second compound 1 µM): > 7.50 | pIC50 (second compound 3.16 µM): > 7.50 | pIC50 (second compound 10 µM): > 7.50 | viability, T/C [1]: 2.51% | viability, T/C [13]: 0.72% | viability, T/C [2]: 0.68% | viability, T/C [14]: 0.69% | viability, T/C [15]: 0.58% | viability, T/C [16]: 0.61% | viability, T/C [3]: 4.19% | viability, T/C [17]: 0.89% | viability, T/C [4]: 0.87% | viability, T/C [18]: 0.9% | viability, T/C [19]: 0.77% | viability, T/C [20]: 0.88% | viability, T/C [5]: 5.63% | viability, T/C [21]: 1.42% | viability, T/C [6]: 1.15% | viability, T/C [22]: 0.95% | viability, T/C [23]: 1.35% | viability, T/C [24]: 1.02% | viability, T/C [7]: 3.58% | viability, T/C [25]: 1.01% | viability, T/C [8]: 0.82% | viability, T/C [26]: 0.79% | viability, T/C [27]: 0.88% | viability, T/C [28]: 0.78% | viability, T/C [9]: 2.86% | viability, T/C [29]: 0.11% | viability, T/C [10]: 0.1% | viability, T/C [30]: 0.06% | viability, T/C [31]: 0.32% | viability, T/C [32]: 0.67% | viability, T/C [11]: 0.04% | viability, T/C [33]: 0.07% | viability, T/C [12]: 0.09% | viability, T/C [34]: 0.07% | viability, T/C [35]: 0.92% | viability, T/C [36]: 0.6%

COc1ncnc(C2CC2)c1-c1ncc2cnn(Cc3ccc(-c4nc(C(F)(F)F)cn4C(C)C)cc3)c2n1 + CN(C)c1ccc(Nc2c3ccc(NC(=O)CCN4CCCC4)cc3nc3cc(NC(=O)CCN4CCCC4)ccc23)cc1
pIC50 (second compound 0.0316 µM): < 5.00 | pIC50 (second compound 0.1 µM): < 5.00 | pIC50 (second compound 0.316 µM): < 5.00 | pIC50 (second compound 1 µM): < 5.00 | pIC50 (second compound 3.16 µM): < 5.00 | pIC50 (second compound 10 µM): 5.25 | viability, T/C [1]: 103% | viability, T/C [13]: 97% | viability, T/C [2]: 108% | viability, T/C [14]: 98.1% | viability, T/C [15]: 100% | viability, T/C [16]: 109% | viability, T/C [3]: 103% | viability, T/C [17]: 100% | viability, T/C [4]: 105% | viability, T/C [18]: 105% | viability, T/C [19]: 92.7% | viability, T/C [20]: 107% | viability, T/C [5]: 103% | viability, T/C [21]: 102% | viability, T/C [6]: 105% | viability, T/C [22]: 100% | viability, T/C [23]: 92% | viability, T/C [24]: 106% | viability, T/C [7]: 93.9% | viability, T/C [25]: 99.5% | viability, T/C [8]: 104% | viability, T/C [26]: 92.7% | viability, T/C [27]: 98.3% | viability, T/C [28]: 101% | viability, T/C [9]: 102% | viability, T/C [29]: 98.2% | viability, T/C [10]: 106% | viability, T/C [30]: 100% | viability, T/C [31]: 106% | viability, T/C [32]: 110% | viability, T/C [11]: 102% | viability, T/C [33]: 103% | viability, T/C [12]: 109% | viability, T/C [34]: 107% | viability, T/C [35]: 91.7% | viability, T/C [36]: 8.22%
